This test relates to Silverleaf Whitefly (Bemisia argentifolii). As to the kind of experiment: Insecticidal test against silverleaf whitefly on cabbage seedlings (spray). It counts as in vivo. The conditions noted are these: spray on infested cabbage seedlings, total of adults and larvae, 9 days after treatment. An excerpt:
Insecticidal Test Against Silverleaf Whitefly (Bemisia argentifolii)
To each of an aqueous dilution in a designated concentration of an emulsifiable concentrate of Compound A (commercial name: Lano EC, manufactured by Sumitomo Chemical Co., Ltd.) and a flowable of Compound B (commercial name: Sanmite flowable, manufactured by Nissan Chemical Industries, Ltd.), and a mixture of the emulsifiable concentrate of Compound A in a designated concentration with the flowable of Compound B in a designated concentration, a spreading agent (Shin-Rino, manufactured by Nihon Nohyaku Co., Ltd.) was added to make the amount of the spreading agent to 1/3000 of volume to prepare a spray solution.
Cabbage seedlings planted in 3 ounces plastic cup were placed in a net cage containing many living silverleaf whiteflies for 24 hours, so that silverleaf whiteflies became parasitic on the cabbage seedlings. Each of the above-prepared test solutions was sprayed with a spray gun. The number of silverleaf whiteflies (i.e., the total number of adults and larvae) surviving on the cabbage seedlings was examined just before and after 9 days from the treatment.

On to `CC(COc1ccc(Oc2ccccc2)cc1)Oc1ccccn1` (stereo not shown) [Compound A, 4-phenoxyphenyl 2-(2-pyridyloxy)propyl ether], for which the “Number of surviving insects after 9 days” value (50 ppm active ingredient) is reported as 30.
With `CC(C)(C)c1ccc(CSc2cnn(C(C)(C)C)c(=O)c2Cl)cc1` [Compound B, 2-tert-butyl-5-(4-tert-butylbenzylthio)-4-chloropyridazin-3(2H)-one], the “Number of surviving insects after 9 days” value stood at 155 (12.5 ppm active ingredient), 10 (50 ppm active ingredient) and 13 (100 ppm active ingredient).
